Assay results from patent US10206401B2, “Pyridine compounds for controlling invertebrate pests II” (BASF SE, priority 2010, dated 2019).

Key:
Assay type in all cases: in vivo
[1] = tested on: Cotton Aphid (Aphis gossypii, Mixed Life Stages); assay: Cotton aphid, method a (cotyledon dip); details: 120 h, cotton cotyledons dipped, after 5 days, read-out: mortality in comparison with untreated controls
Source text: II.1 Cotton Aphid (Aphis gossypii, Mixed Life Stages)
The active compounds were formulated in 50:50 (vol/vol) acetone:water and 100 ppm Kinetica™ surfactant.
Cotton plants at the cotyledon stage (one plant per pot) were infested by placing a heavily infested leaf from the main colony on top of each cotyledon. The aphids were allowed to transfer to the host plant overnight, and the leaf used to transfer the aphids was removed. The cotyledons were dipped in the test solution and allowed to dry. After 5 days, mortality counts were made.

[2] = tested on: Cowpea Aphid (Aphis craccivora); assay: Cowpea aphid, potted cowpea plants sprayed; details: population reduction assessed after 24, 72 and 120 hours, read-out: mortality in comparison with untreated controls
Protocol: II.3 Cowpea Aphid (Aphis craccivora)
The active compounds were formulated in 50:50 (vol/vol) acetone:water. The test solution was prepared at the day of use.
Potted cowpea plants colonized with 100-150 aphids of various stages were sprayed after the pest population had been recorded. Population reduction was assesed after 24, 72, and 120 hours.

[3] = tested on: Vetch Aphid (Megoura viciae); assay: Vetch aphid, bean leaf disks in microtiterplates; details: foliar, 144 h, test solution 2500 mg/L, bean leaf disks sprayed, 6 days
Protocol: II.4 Vetch Aphid (Megoura viciae)
The active compounds were formulated in 1:3 (vol/vol) DMSO:water with different concentrations of formulated compounds.
Bean leaf disks were placed into microtiterplates filled with 0.8% agar-agar and 2.5 ppm OPUS™. The leaf disks were sprayed with 2.5 μl of the test solution and 5 to 8 adult aphids were placed into the microtiterplates which were then closed and kept at 23±1° C. and 50±5% relative humidity under fluorescent light for 6 days. Mortality was assessed on the basis of vital, reproduced aphids. Aphid mortality and fecundity was then visually assessed.

Question: Which results are given for `Cc1c(C(=O)Nc2cccnc2)nnn1Cc1ccccc1` [Example 2, 1-Benzyl-5-methyl-1H-[1,2,3]triazole-4-carboxylic acid pyridin-3-ylamide]?
Answer: mortality at 300 ppm [1]: ≥ 75%; mortality at 300 ppm [2]: ≥ 90%; mortality at 2500 µg/mL [3]: ≥ 90%
